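Each compound was tested at five concentrations against cells in 96-well plates for 48 hours. GI50: concentration for 50% inhibition of growth. The concentration for full growth arrest is given as TGI.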
Test system: MDA-MB-468 breast
Assay: NCI anticancer screen, dose series, 48 h

Compound | GI50 [µM] | TGI [µM]
COc1cc(Nc2c(C#N)cnc3cc(OCCCN4CCN(C)CC4)c(OC)cc23)c(Cl)cc1Cl | 1.63 | 4.14
Cc1cc(Cl)cc(NS(=O)(=O)c2ccc(-c3cnc(C4CC4)o3)cc2)c1 | 0.12 | 4.44
CC1OC(n2c3ccccc3c3c4c(c5c6ccccc6[nH]c5c32)C(=O)N(CCN[C@@H]2CCC[C@H]2N)C4=O)CC(O)C1O (some centres undefined) | 1.15 | 3
NC(=O)c1ccc(I)c(N=O)c1 | 21.3 | 61.3
COc1ccc(-c2nc(-c3ccccc3)c(-c3ccccc3)[nH]2)cc1OC1CCCC1 | > 100 | > 100
CCC(C)[C@H]1O[C@]2(C=C[C@@H]1C)C[C@@H]1C[C@@H](C/C=C(\C)[C@@H](OC3C[C@H](OC)C(O[C@H]4C[C@H](OC)[C@@H](O)[C@H](C)O4)[C@H](C)O3)[C@@H](C)/C=C/C=C3\CO[C@@H]4[C@H](O)C(C)=C[C@@H](C(=O)O1)[C@]34O)O2 (some centres undefined) | 1.03 | 4.14
CN(C)c1ccc(-c2cc(-c3c[nH]c4ccccc34)nc(N)c2C#N)cc1 | 1.97 | 9.22
CCCNC(=O)CCC(C)C1CCC2C3C(C[C@H](OC(C)=O)[C@]12C)[C@@]1(C)CCC2(C[C@H]1C[C@H]3OC(C)=O)OOC1(CC[C@]3(C)C4C[C@H](OC(C)=O)[C@]5(C)C(C(C)CCC(=O)NCCC)CCC5C4[C@H](OC(C)=O)C[C@@H]3C1)OO2 (some centres undefined) | 24.9 | > 100
Cc1cc(C(=C2C=CC(=Nc3ccccc3)C=C2)c2ccc(Nc3ccccc3)cc2)ccc1N | 0.332 | 1.29
COc1cccc(-c2nn(-c3ccccc3)cc2-c2ccnc(NCCCNC(=O)Nc3ccc(Cl)c(Cl)c3)c2)c1 | 1.92 | 4.34
O=C(Nc1ccncc1)C(=O)c1cn(Cc2ccc(Cl)cc2)c2ccccc12 | 0.0271 | 0.346
O=S(=O)(Nc1ccc(Br)c(Cl)c1)c1ccc(-c2cnc(C3CC3)o2)cc1 | 0.263 | 2.86
NC(=O)c1ccccc1Nc1ccc2nnc(-c3ccncc3)n2n1 | 1.98 | 7.32
CN(C)C(=S)/N=c1\ssc(=S)n1Cc1ccccc1 | 0.5 | 35.2
CN[C@H](C#Cc1c(F)ccc2c1/C(=C/c1[nH]ccc1OC)C(=O)N2)CO | 0.476 | 1.45
CCn1cnc(C[C@H](NC(=O)[C@@H](NC(=O)Nc2cc(C(F)(F)F)cc(C(F)(F)F)c2)C(C)C)C(=O)OC)c1 | 1.74 | 3.57
C=CC1CN2CCC1CC2C(O)c1ccnc2ccc(OC)cc12 (centres undefined) | > 100 | > 100
CCCc1cc(=O)[nH]c(-n2nc(C)cc2C)n1 | 4.77 | > 100
COC(=O)[C@@]12OC[C@]34[C@H]([C@@H](O)[C@@H]1O)[C@@]1(C)[C@H](O)C(=O)C=C(C)[C@@H]1C[C@H]3OC(=O)C(OC(C)=O)[C@@H]24 (some centres undefined) | 0.0208 | 0.0624
Cc1ccc(-c2nc(C#N)c(S(=O)(=O)n3nc(C)cc3N)o2)cc1 | 2.72 | 7.96
CNCCCn1c2c(c3ccc([N+](=O)[O-])cc3c1=O)C(=O)c1cc(OC)cnc1-2 | 0.0335 | 0.189
COC1=CC(c2ccc[nH]2)=N/C1=C\c1[nH]c(C)c(C(=O)CCCCC(=O)NC(C)(C)C)c1C | 1.52 | 3.58
c1csc(-c2cn3nc(-c4c[nH]c5ccccc45)sc3n2)c1 | 2.92 | 27.8
C[C@]12CCc3sc(NCCc4ccccc4)nc3C1=CC[C@@H]1[C@@H]2CC[C@]2(C)C(=O)CC[C@@H]12 | 2.99 | 10.3
CN1CCN(CCOc2ccc(-c3cnc4c(-c5ccc(C(F)(F)F)cc5)cnn4c3)cc2)CC1 | 1.36 | 2.95
CCC1CN2C(=N1)c1ccccc1-c1cc(Cl)ccc12 (centres undefined) | 2.16 | 6.85
COc1cc2c(cc1O)CC[C@@H]1[C@@H]2CC[C@]2(C)[C@@H](OCCN(C)C)CC[C@@H]12 | 0.154 | 0.531

— PubChem BioAssay (NCI)
